This note sets out measurements from publication PMC4858918, “Improving the N-terminal diversity of sansanmycin through mutasynthesis” (Microbial Cell Factories, 2016).

Values after ≈ are worked out from the molar mass of the structure shown.

One series concerns M. tuberculosis H37Rv. Description: MIC, microplate Alamar blue assay (MABA). It is filed as cell-based. To be noted: Mycobacterium tuberculosis, standard and susceptible strain. A general note: Resazurin is reduced to fluorescent resorufin, in cell work by metabolically active cells.
A further series concerns P. aeruginosa 11. The series can be described thus: MIC, microdilution test (CLSI). Particulars: Pseudomonas aeruginosa, 11, 24 h, read-out: MIC P. aeruginosa 11. (In general: Dilution methods test growth across graded concentrations, often in twofold steps.)
The test system of another series is E. coli ΔtolC mutant. Description: MIC, microdilution test (CLSI). Particulars: Mueller-Hinton broth, 10^6 cells/ml, 37 °C, 24 h, visual observation, triplicate.
The test system of series [1] is B. subtilis CMCC (B) 63501. The series can be described thus: MIC, microdilution test (CLSI). Particulars: Bacillus subtilis, 24 h, read-out: MIC B. subtilis CMCC (B) 63501.
Series [2] in a line: Stability determination in KH2PO4 buffer. The format is physicochemical. To be noted: chemical stability, 0.05 M KH2PO4 buffer pH 6.0, room temperature (25 °C), HPLC peak areas, three parallel repeats. As to the method: As it is easier to get enough amount of sansanmycin MX-2 and MX-4, the stability test of sansanmycin A, MX-2 and MX-4 was performed in KH2PO4 buffer (pH 6.0) at room temperature.
Fig. 8 Stability of sansanmycin A, MX-2 and MX-4. a HPLC analysis of sansanmycin A at indicated days in KH2PO4 buffer (pH 6.0) at room temperature. b The changes of the level of sansanmycin A, MX-2 and MX-4 over time. All samples were analyzed by HPLC and quantified according to the areas of peaks. blue line, sansanmycin MX-2; red line, sansanmycin MX-4; green line, sansanmycin A
To dissect the stability of sansanmycin A and other sansanmycin analogues, compounds were dissolved in 0.05 M KH2PO4 buffer (pH adjusted to 6.0 with NaOH). All samples were incubated at 25 °C for 9 days. Each sample has three parallel repeats. Residual analogues were analyzed by HPLC and quantified by the peak areas.

`NNC(=O)c1ccncc1` [Isoniazid]: the lowest concentration to inhibit growth with M. tuberculosis H37Rv (MIC) was 0.125 µg/mL (≈ 0.911 µM). In turn, `CO[C@H]1/C=C/O[C@@]2(C)Oc3c(C)c(O)c4c(O)c(c(/C=N/N5CCN(C)CC5)c(O)c4c3C2=O)NC(=O)/C(C)=C\C=C\[C@H](C)[C@H](O)[C@@H](C)[C@@H](O)[C@@H](C)[C@H](OC(C)=O)[C@@H]1C` [Rifampicin] returned an MIC in the series with M. tuberculosis H37Rv below 0.06 µg/mL. `CC[C@@H](CO)NCCN[C@@H](CC)CO` [Ethambutol] came in with an MIC against M. tuberculosis H37Rv of 0.5 µg/mL (≈ 2.45 µM). With `[H]/N=C(/N)N[C@H]1[C@H](O)[C@@H](O)[C@H](O[C@@H]2O[C@@H](C)[C@](O)(C=O)[C@H]2O[C@@H]2O[C@@H](CO)[C@H](O)[C@@H](O)[C@@H]2NC)[C@@H](N/C(N)=N\[H])[C@@H]1O` [Streptomycin], the MIC in the series on P. aeruginosa 11 amounted to 4 µg/mL (≈ 6.88 µM); against M. tuberculosis H37Rv, 0.25 µg/mL (≈ 0.43 µM); in series [1] it was 2 µg/mL (≈ 3.44 µM). In addition, the “MIC E. coli ΔtolC” value against E. coli ΔtolC mutant came to 16 µg/mL (≈ 27.5 µM). Consider `CSCC[C@H](NC(=O)N[C@@H](Cc1c[nH]c2ccccc12)C(=O)O)C(=O)NC(C(=O)N/C=C1/CC(O)C(n2ccc(=O)[nH]c2=O)O1)C(C)N(C)C(=O)[C@@H](N)Cc1cccc(O)c1` (some centres unmarked) [A, sansanmycin A], for which the “compound remained after 6 days of incubation” value in series [2] was “less than 10%”.

As usually defined, the MIC is the lowest concentration that inhibits growth of the organism.
